Biological target: rSe-DSP1 (Se-DSP1; dorsal switch protein 1)
Experiment: thermal shift assay (Protein Thermal Shift dye), melting temperature vs ligand concentration
Parameters: species or system Spodoptera exigua
Conditions: 500 ng protein; ligand 0-8 uM; compounds dissolved in DMSO

With CCOc1cc(O)ccc1OC [3-ethoxy-4-methoxyphenol] the Kd was 119 ± 20 nM.
O=C(O)c1ccccc1O [salicylic acid] was tested, and the Kd was 238 ± 40 nM.

From PMC8023496, “Immune mediation of HMG-like DSP1 via Toll-Spätzle pathway and its specific inhibition by salicylic acid analogs” (PLoS Pathogens, 2021)
